{"source": "patent US8343490B2", "about": "“Monoclonal antibody SC104 and derivative thereof specifically binding to a sialyltetraosyl carbohydrate as a potential anti-tumor therapeutic agent” (Cephalon Australia Pty Ltd, priority 2004, dated 2013)", "key": {"[1]": {"system": "C170 cells", "experiment": "In vitro inhibition of cell growth in combination with cytotoxic drugs, MTS", "format": "cell-based", "settings": "5 days, FIG. 25", "experimental": "1×10^3 colorectal C170 cells were aliquoted into individual wells of a flat bottomed 96-well plate and left to adhere overnight at 37° C. The following day the cells were treated with cisplatin, mitomycin C, oxaliplatin and tamoxifen at final concentrations of 10, 3, 1, 0.3, 0.1 and 0 μM. Against each concentration of drug the following concentrations of SC104 were titrated: 10, 3, 1, 0.3 and 0 μg/ml. As a negative control 791T/36 at concentrations 100, 30, 10, 3 and 0 μg/ml, was titrated against each concentration of drug used. Duplicate wells were used. Cells were left for 5 days at 37° C. prior to the addition of MTS reagent to each well and optical density reading at 490 nm."}, "[2]": {"system": "C170 xenografts", "format": "in vivo", "experimental": "(§1) Prevention model. The colorectal tumour cell line, C170 was maintained in serial passage in nude mice. For therapy the mice were sacrificed and the tumours excised. The tumour was finely minced and […] pieces were implanted, under anaesthetic, subcutaneously into 30 male mice which had been randomly allocated to 4 experimental groups.\nMice were explanted with 3 mm^3 pieces of C170 xenografts. Groups of mice were treated with 5-FU/leucovorin (12.5 mg/Kg) by intravenous infusion on days 1, 3, 5, 7 and 28. On the same days mice were also injected intraperitonealy with 0.2 mg of SC104 mab. Control mice received either SC104 alone or control mouse IgG antibody with 5-FU/leucovorin. Tumour size was measured by callipers and tumour cross sectional area calculated on days 7, 9, 12, 14 and 16. Animals were weighed to assess the toxicity of treatment. At the termination of the experiment tumours were weighed to assess anti-tumour efficacy."}, "[3]": {"system": "C170 xenografts", "experiment": "C170 xenograft therapeutic model", "format": "in vivo, nude mice", "settings": "administered therapeutically, after C170 xenograft implantation; FIG. 27", "experimental": "as §1, with “Therapeutic” for “Prevention”\nMice were explanted with 3 mm^3 pieces of C170 xenografts. […] On the same days mice were also injected intraperitonealy with 0.2 mg of SC104 mab. Control mice received either SC104 alone or control mouse IgG antibody with 5FU/leucovorin. Tumour size was measured by callipers and tumour cross sectional area calculated on days 12, 16, 19 and 23."}, "[4]": {"system": "C170 xenografts", "format": "in vivo", "settings": "day 6"}}, "note": "Like-named read-outs stand apart in the source and are kept apart here."}
{"molecule": "CO[C@@]12[C@H](COC(N)=O)C3=C(C(=O)C(C)=C(N)C3=O)N1C[C@@H]1N[C@@H]12", "note": "[mitomycin C, Mitomycin C]", "values": [{"measurement": "additive killing in combination with SC104", "setting": "[1]", "result": "additive killing"}]}
{"molecule": "O=c1[nH]cc(F)c(=O)[nH]1", "note": "[5-FU, 5-Fluorouracil, reference compound]", "values": [{"measurement": "survival of mice", "setting": "[2]; Log Rank, FIG. 26b", "result": "significant improvement of survival"}, {"measurement": "inhibition of tumour growth", "setting": "[2]; day 9", "result": 40, "unit": "%"}, {"measurement": "inhibition of tumour growth", "setting": "[2]; day 12", "result": 45, "unit": "%"}, {"measurement": "inhibition of tumour growth", "setting": "[2]; day 14", "result": 58, "unit": "%"}, {"measurement": "additive killing in combination with SC104", "setting": "[1]", "result": "additive killing"}, {"measurement": "inhibition of tumour growth", "setting": "[3]", "result": "neither 5FU nor SC104 alone significantly inhibited growth"}, {"measurement": "inhibition of tumour growth", "setting": "[4]", "result": 62, "unit": "%"}]}
{"molecule": "5-FU/leucovorin [reference compound]", "values": [{"measurement": "inhibition of tumour growth of freshly explanted tumours", "setting": "[2]; SC104 200 μg/dose ip, 5-FU/leucovorin at maximum tolerated dose, FIG. 26a", "result": 50, "unit": "%"}]}
{"molecule": "O=C1[O][Pt]2([NH][C@@H]3CCCC[C@H]3[NH]2)[O]C1=O", "note": "[oxaliplatin]", "values": [{"measurement": "additive killing in combination with SC104", "setting": "[1]", "result": "No additive effect"}]}
{"molecule": "CC/C(=C(\\c1ccccc1)c1ccc(OCCN(C)C)cc1)c1ccccc1", "note": "[tamoxifen]", "values": [{"measurement": "additive killing in combination with SC104", "setting": "[1]", "result": "additive killing"}]}
{"molecule": "N.N.[Cl][Pt][Cl]", "note": "[cisplatin]", "values": [{"measurement": "additive killing in combination with SC104", "setting": "[1]", "result": "additive killing"}]}
